Common to all, as to set-up: species or system Hepatitis C virus
The test system of assay [1] is HCV replicon 1A. Description: Cell-based HCV replicon assay (Replicon Assay A), replicon 1A. Conditions: replicon RNA by real time PCR, day 3. The procedure: (§1) To measure cell-based anti-HCV activity of compounds of the present invention, two complimentary assays were employed using various replicons. In the first assay (“Replicon Assay A”), replicon cells were seeded at 2000 cells/well in 384-well 384-well flat bottom tissue culture treated clear bottom plate (Corning 3707) in the presence of the test compound. Various concentrations of test compound, typically in 10 serial dilutions, were added to the assay mixture, with the starting concentration ranging from 333.3 nM to 1.667 nM. The final concentration of DMSO was 0.5%. Fetal bovine serum was 5%, in the assay media. Cells were harvested on day 3 by removing media and washing the cells with a suitable wash buffer. The cells were lysed with the addition of 1× Qiagen lysis buffer (Cat #1062731). The replicon RNA level was measured using real time PCR (TaqMan® EZ RT-PCR, Applied Biosystems 403028) with the following primers and probes: […]
(§2) Cyclophilin RNA was used as endogenous control and was amplified in the same reaction as NS5B (multiplex PCR). The real-time RT-PCR reactions were run on ABI PRISM 7900HT Sequence Detection System using the following program: 50° C. for 2 minutes, 60° C. for 30 minutes, 95° C. for 5 minutes, 40 cycles of 94° C. for 20 sec, 55° C. for 1 minutes.
(§3) The amount of HCV replicon RNA per cell was quantified using a linear regression curve for a known nanogram (ng) amount of HCV replicon total RNA. This was established by plotting the Cycle Threshold values (Ct) from the Neo probe and primer set versus the log (ng) for each HCV replicon total RNA standard. The amount of HCV RNA for each replicon sample was calculated by taking the sample's Ct value, minus the line intercept, divided by the slope of the line. Similarly, the amount of Cyclophilin mRNA per cell was also quantified using a linear regression curve for a known nanogram (ng) amount of HCV replicon total RNA. Again, this was established by plotting the Cycle Threshold values (Ct) from the Cyclophilin probe and primer set versus the log (ng) for each HCV replicon total RNA standard.
(§4) The real-time RT-PCR reactions were run on ABI PRISM 7900HT or Viia7 Sequence Detection System using the following program: 48° C. for 30 minutes, 95° C. for 10 minutes, 40 cycles of 95° C. for 15 sec, 60° C. for 1 minutes. The 50% effective concentration (EC50) was the drug concentration necessary to achieve an increase in the cycle threshold (CT) of 1 over the projected baseline CT.
(§5) Data was obtained for various compounds of the present invention using the methods described in the Example above, and is presented in the table immediately below. EC50 data for replicons 1A, 1AY93H and 2B were obtained using Replicon Assay A and EC50 data for replicon 1B was obtained using Replicon Assay B.

The test system of assay [2] is HCV replicon 2B. Description: Cell-based HCV replicon assay (Replicon Assay A), replicon 2B. Conditions: replicon RNA by real time PCR, day 3. The procedure:
as §1, §2, §3, §4, §5

Assay [3] concerns HCV replicon 1A Y93H. Description: Cell-based HCV replicon assay (Replicon Assay A), replicon 1AY93H. As to conditions: read-out: EC50 replicon 1A Y93H; Replicon Assay A; replicon RNA by real time PCR, day 3. The protocol:
as §1, §2, §3, §4, §5
A general note: In antiviral work, replicon cells carry a viral genome segment that copies itself.

The mark [4] stands for this setting: read-out: EC50 replicon 2B, Replicon Assay A.

The values that follow come from patent US10738062B2, “Chromane-substituted tetracyclic compounds and uses thereof for the treatment of viral diseases” (Merck Sharp & Dohme Corp., priority 2016, dated 2020).

Where two headings read alike, the source gives them in different places.

Usually EC50 stands for the concentration giving half of the maximal effect. In the case of `COC(=O)N[C@H](C(=O)N1CCC[C@H]1c1ncc(-c2cc(F)c3c(c2)OC(c2ccc4c(c2)OC(C)CC4)n2c-3cc3cc(-c4cnc([C@@H]5CCCN5C(=O)[C@@H](NC(=O)OC)C(C)C)[nH]4)ccc32)[nH]1)C(C)C` (single isomer, unassigned) [Compound 11], the 50% effective concentration (EC50) in assay [1] (Hepatitis C virus, 72 h) worked out at 0.0025 nM; in assay [2] (setting [4]), 1.39 nM; in assay [3], 5.7 nM.

Turning to `COC(=O)N[C@H](C(=O)N1CCC[C@H]1c1ncc(-c2cc(F)c3c(c2)OC(c2ccc4c(c2)OC(C)CC4)n2c-3cc3cc(-c4cnc([C@@H]5CCCN5C(=O)[C@@H](NC(=O)OC)C(C)C)[nH]4)ccc32)[nH]1)C(C)C` (single isomer, unassigned) [Compound 12], the half-maximal effective concentration (EC50) in assay [1] was 0.0016 nM; in assay [2] (setting [4]), 1.9 nM; in assay [3], 6.73 nM.

On to `COC(=O)N[C@H](C(=O)N1CCC[C@H]1c1ncc(-c2cc(F)c3c(c2)OC(c2ccc4c(c2)OCCC42CC2)n2c-3cc3cc(-c4cnc([C@@H]5CCCN5C(=O)[C@@H](NC(=O)OC)C(C)C)[nH]4)ccc32)[nH]1)C(C)C` (single isomer, unassigned) [Compound 15], for which the EC50 in assay [1] (Hepatitis C virus, 72 h) was determined as 0.0012 nM; in assay [2] (setting [4]), 1.31 nM; in assay [3] it was 2.15 nM.

Consider `COC(=O)N[C@H](C(=O)N1CCC[C@H]1c1ncc(-c2cc(F)c3c(c2)OC(c2ccc4c(c2)OCCC42CC2)n2c-3cc3cc(-c4cnc([C@@H]5CCCN5C(=O)[C@@H](NC(=O)OC)C(C)C)[nH]4)ccc32)[nH]1)C(C)C` (single isomer, unassigned) [Compound 16], for which the EC50 worked out at 0.002 nM in assay [1], 0.038 nM in assay [2] (setting [4]) and 0.031 nM in assay [3].

With `COC(=O)N[C@H](C(=O)N1CCC[C@H]1c1ncc(-c2cc(F)c3c(c2)OC(c2ccc4c(c2)OC(C)(C)CC4)n2c-3cc3cc(-c4cnc([C@@H]5CCCN5C(=O)[C@@H](NC(=O)OC)C(C)C)[nH]4)ccc32)[nH]1)C(C)C` (single isomer, unassigned) [Compound 18], the EC50 in assay [1] (Hepatitis C virus, 72 h) turned out to be 0.0022 nM; in assay [2] (setting [4]), 0.252 nM; in assay [3], 0.052 nM.

For `COC(=O)N[C@H](C(=O)N1CCC[C@H]1c1ncc(-c2cc(F)c3c(c2)OC(c2ccc4c(c2)OCCC4(F)F)n2c-3cc3cc(-c4cnc([C@@H]5CCCN5C(=O)[C@@H](NC(=O)OC)C(C)C)[nH]4)ccc32)[nH]1)C(C)C` (single isomer, unassigned) [Compound 19], the EC50 amounted to 0.0014 nM in assay [1] (Hepatitis C virus, 72 h); 0.767 nM in assay [2] (setting [4]); 4.2 nM in assay [3].

As for `COC(=O)N[C@H](C(=O)N1CCC[C@H]1c1ncc(-c2cc(F)c3c(c2)OC(c2ccc4c(c2)CCC(C)(C)O4)n2c-3cc3cc(-c4cnc([C@@H]5CCCN5C(=O)[C@@H](NC(=O)OC)C(C)C)[nH]4)ccc32)[nH]1)C(C)C` (single isomer, unassigned) [Compound 21], the EC50 in assay [1] (Hepatitis C virus, 72 h) is 0.0015 nM; in assay [2] (setting [4]) it was 3.56 nM; in assay [3], 7.11 nM.

For the molecule `COC(=O)N[C@H](C(=O)N1CCC[C@H]1c1ncc(-c2cc(F)c3c(c2)OC(c2ccc4c(c2)CCC(C)(C)O4)n2c-3cc3cc(-c4cnc([C@@H]5CCCN5C(=O)[C@@H](NC(=O)OC)C(C)C)[nH]4)ccc32)[nH]1)C(C)C` (single isomer, unassigned) [Compound 22], the results for the EC50 in assay [1], in assay [2] (setting [4]) and in assay [3] were 0.0027 nM, 0.93 nM and 0.162 nM, respectively.

As for `COC(=O)N[C@H](C(=O)N1CCC[C@H]1c1ncc(-c2cc(F)c3c(c2)OC(c2ccc4c(c2)CCCO4)n2c-3cc3cc(-c4cnc([C@@H]5CCCN5C(=O)[C@@H](NC(=O)OC)C(C)C)[nH]4)ccc32)[nH]1)C(C)C` (single isomer, unassigned) [Compound 23], the EC50 worked out at 0.002 nM in assay [1] (Hepatitis C virus, 72 h); 5.17 nM in assay [2] (setting [4]); 2.62 nM in assay [3].

As to `COC(=O)N[C@H](C(=O)N1CCC[C@H]1c1ncc(-c2cc(F)c3c(c2)OC(c2ccc4c(c2)CCCO4)n2c-3cc3cc(-c4cnc([C@@H]5CCCN5C(=O)[C@@H](NC(=O)OC)C(C)C)[nH]4)ccc32)[nH]1)C(C)C` (single isomer, unassigned) [Compound 24], the EC50 was 0.0016 nM in assay [1], 1.77 nM in assay [2] (setting [4]) and 0.282 nM in assay [3].

Turning to `COC(=O)N[C@H](C(=O)N1CCC[C@H]1c1ncc(-c2cc(F)c3c(c2)OC(c2ccc4c(c2)CC2CC2(C)O4)n2c-3cc3cc(-c4cnc([C@@H]5CCCN5C(=O)[C@@H](NC(=O)OC)C(C)C)[nH]4)ccc32)[nH]1)C(C)C` (single isomer, unassigned) [Compound 25], the EC50 in assay [1] (Hepatitis C virus, 72 h) came out at 0.0037 nM; in assay [2] (setting [4]) it was 3.83 nM; in assay [3], 4.67 nM.

As for `COC(=O)N[C@H](C(=O)N1CCC[C@H]1c1ncc(-c2cc(F)c3c(c2)OC(c2ccc4c(c2)CC2CC2(C)O4)n2c-3cc3cc(-c4cnc([C@@H]5CCCN5C(=O)[C@@H](NC(=O)OC)C(C)C)[nH]4)ccc32)[nH]1)C(C)C` (single isomer, unassigned) [Compound 26], the EC50 in assay [1] is 0.0028 nM; in assay [2] (setting [4]), 1.41 nM; in assay [3], 0.344 nM.

On to `COC(=O)N[C@H](C(=O)N1CCC[C@H]1c1ncc(-c2cc(F)c3c(c2)OC(c2ccc4c(c2)OC(C)(C)C4)n2c-3cc3cc(-c4cnc([C@@H]5CCCN5C(=O)[C@@H](NC(=O)OC)C(C)C)[nH]4)ccc32)[nH]1)C(C)C` (single isomer, unassigned) [Compound 27], for which the EC50 came out at 0.0014 nM in assay [1] (Hepatitis C virus, 72 h); 1.48 nM in assay [2] (setting [4]); 1.08 nM in assay [3].

For the molecule `COC(=O)N[C@H](C(=O)N1CCC[C@H]1c1ncc(-c2cc(F)c3c(c2)OC(c2ccc4c(c2)CCCO4)n2c-3cc3cc(-c4cnc([C@@H]5CCCN5C(=O)[C@@H](NC(=O)OC)C5CCOCC5)[nH]4)ccc32)[nH]1)C(C)C` (single isomer, unassigned) [Compound 36], the half-maximal effective concentration (EC50) in assay [1] was determined as 0.0021 nM; in assay [2] (setting [4]), 0.416 nM; in assay [3], 0.426 nM.

With `COC(=O)N[C@H](C(=O)N1CCC[C@H]1c1ncc(-c2cc(F)c3c(c2)OC(c2ccc4c(c2)CCCO4)n2c-3cc3cc(-c4cnc([C@@H]5C[C@H]6C[C@H]6N5C(=O)[C@@H](NC(=O)OC)C(C)C)[nH]4)ccc32)[nH]1)C(C)C` (single isomer, unassigned) [Compound 45], the EC50 in assay [1] turned out to be 0.001 nM; in assay [2] (Hepatitis C virus, 72 h, read-out: EC50 replicon 2B, Replicon Assay A) it was 5.28 nM; in assay [3], 0.12 nM.

Take `COC(=O)N[C@H](C(=O)N1CCC[C@H]1c1ncc(-c2cc(F)c3c(c2)OC(c2ccc4c(c2)CCCO4)n2c-3cc3cc(-c4cnc([C@@H]5C[C@H]6C[C@H]6N5C(=O)[C@@H](NC(=O)OC)C(C)C)[nH]4)ccc32)[nH]1)C(C)C` (single isomer, unassigned) [Compound 46]: the 50% effective concentration (EC50) in assay [1] is 0.0026 nM; in assay [2] (setting [4]), 7.71 nM; in assay [3] it was 4.13 nM.

For `COC(=O)N[C@H](C(=O)N1CCC[C@H]1c1ncc(-c2ccc3c(c2)OC(c2ccc4c(c2)OCCC4)n2c-3cc3cc(-c4cnc([C@@H]5C[C@H]6C[C@H]6N5C(=O)[C@@H](NC(=O)OC)C(C)C)[nH]4)ccc32)[nH]1)C(C)C` (single isomer, unassigned) [Compound 49], the EC50 in assay [1] (Hepatitis C virus, 72 h) amounted to 0.0016 nM; in assay [2] (setting [4]), 0.817 nM; in assay [3], 2.44 nM.

On to `COC(=O)NC(C(=O)N1CCC[C@H]1c1ncc(-c2ccc3c(c2)cc2n3C(c3ccc4c(c3)CCC(C)O4)Oc3cc(-c4cnc([C@@H]5CCCN5C(=O)[C@@H](NC(=O)OC)C(C)C)[nH]4)cc(F)c3-2)[nH]1)C1C[C@@H](C)O[C@@H](C)C1` (single isomer, unassigned) [Compound 55], for which the EC50 in assay [1] (Hepatitis C virus, 72 h) stood at 0.0019 nM; in assay [2] (setting [4]), 1.26 nM; in assay [3], 1.86 nM.

Consider `COC(=O)NC(C(=O)N1CCC[C@H]1c1ncc(-c2ccc3c(c2)cc2n3C(c3ccc4c(c3)CCC(C)O4)Oc3cc(-c4cnc([C@@H]5CCCN5C(=O)[C@@H](NC(=O)OC)C(C)C)[nH]4)cc(F)c3-2)[nH]1)C1C[C@@H](C)O[C@@H](C)C1` (single isomer, unassigned) [Compound 56], for which the results for the EC50 in assay [1], in assay [2] (setting [4]) and in assay [3] were 0.0024 nM, 0.288 nM and 0.114 nM, respectively.
